Results published in US4066650A, “Keto-aldehyde-amine addition products and method of making same” (priority 1975, dated 1978).

How the values were obtained:
Water solubility = format: physicochemical
Sarcoma-180 = experiment: Anti-tumor action on subcutaneous Sarcoma-180 in mice; format: in vivo, Swiss albino mice (Charles River CD-1 strain); set-up: ED: unit not given here; settings: for IT (therapeutic index LD10/ED90): mice
Description: On the eleventh day (tumer age 14 days) the test and control mice were sacrificed, the tumor or tumorous area was cut out, weighed and stored in formaldehyde for histological examination. At the same time the liver, kidneys, spleen, heart, and a piece of the small intestine were collected and stored in formaldehyde for histopathological evaluation of the effect of the drugs on these tissues and organs.
The anti-neoplastic action of the drugs was assayed by comparison of the tumor weight present in treated and control animals and expressed as the percent of controls average weight (T/C%). The presence of malignancy in the tumors or tumor-areas of the treated animals was verified by histological examination.
The reabsorption of tissue, formed between the inocculation of the cancer cells and the onset of the treatment is relatively slow. Treated animals even under strong cancerostatic action of the drugs show a small quantity (100-200 mg) of tissue in the area where the tumor cells where deposited. It is therefore difficult to tell the nature of these residual tissues by macroscopic examination. Most of these residual "lumps" are made up of connective tissues and necrotic, scar tissues. If it were regarded as neoplasia without histological examination the T/C% calculation would give an erratic result in the evaluation of the anti-cancer action of the compound. Histological examination of these "lumps" therefore is exceedingly important in order to arrive at a valid evaluation of the effectiveness of the drugs especially in short-term experiments (10 days) as carried out in the present assays.

skin graft = experiment: Skin graft rejection (orthotopic skin heterografts white to gray and gray to white); format: in vivo, Swiss albino mice and C3HStCrl mice; settings: 3.744 mg/kg i.p. daily, cumulative; for rejection on 31-40 days: g to w line; for rejection on 26-30 days: w to g line
From the text: Skin grafting in mice is well established and this tissue is among the most sensitive indicators of histocompability differences. The retnetion of skin graft between genetically non-related mice is an excellent method of evaluating activity against rejection mechanism. p As the rejection of transplants is associated with antigen formation against the incompatible proteins of the donated tissue, a drug which specifically represses the protein synthesis without affecting the intermediary metabolism of the host is a potential candidate for combatting rejection.
The experiments described here were performed on random-bred Swiss albino mice (white, females, average body weight 26±3 g; Charles River CD-1-strain) and inbred C3HStCrl mice (cinnamon gray, females, average body weight 20±2 grams; Charles River pedigreed breeders from L. C. Strong Foundation) and othotopic skin transplants were made in both ways, that is, white to gray and gray to white.
Standard transplantation technique (R. E. Billingham, W. K. Silvers in Transplantation of tissues and cells, The Wistar Institute Press, Philadelphia, p. 8, 1961) was utilized: From nembutal anesthetized animals 4-6 "pinch"-grafts (full thickness, 3-4 mm in diameter) of the close clipped and sterilized skin were collected from the thorax and immediately transplanted. The grafts were positioned in the "beds" (in place of the pinch-graft) and were held in position by tulle gras (vaseline-impregnatedgauze) and by plaster-of-Paris impregnated bandage around the thorax.
The bandages were removed on the 6-9th day after the transplantation and the future development of the grafts was followed by macroscopical observations.
Positive and negative controls were made simultaneously for skin rejection:
a. Four positive control isografts (white to white, and gray to gray) were made. […] On the 21-28th day the fur-bearing skin had regenerated a completely new crop of hairs indistinguishable from the original population with respect to colors, density and orientation.
b. Four negative control heterografts (white to gray and gray to white) were made without treatment. […] On the 10-12th day after transplantation intravascular thrombies, capillary ruptures, extravasation of blood were the first signs that the grafts were heading for necrosis and rejection which occurred on the 18-25th day.
The heterografts with treatment followed three courses with methylglyoxal-maleimide (at dose level 3.744 mg/kg/animal/day) administered intraperitoneally in a total amount of 1.0 ml/animal/day.
i. Animals were treated for 10 days with the composition before grafts were exchanged and treatment was discontinued on the day of transplantation.
ii. Animals were not treated before the grafts were exchanged but the treatment started on the day of transplantation and continued for 10 days.
iii. Animals were treated for 10 days with the drug before the grafts were exchanged and the treatment schedule was continued for 25 days after the transplantation.

[1] = tested on: normal (non-tumorous) mice; experiment: Acute toxicity (mortality), body weight change and 30-day survival in normal mice; settings: for LD10 (maximum tolerated dose at 10% lethality) / effect of reduction in the total volume of injection on mortality: mice; for LD10 (maximum tolerated dose at 10% lethality) / 30 day mortality rate of all treated nontumorous animals (compared with mortality in 10 days): i.p. daily for 10 days; for effect of reduction in the total volume of injection on mortality: i.p., volume below 1.0 ml/animal/day; for 30 day mortality rate of all treated nontumorous animals (compared with mortality in 10 days): 30 day observation
Description: (§1) The biological effects of methylglyoxal maleimide ("A") and methylglyoxal glutaconic imide ("B") were determined by tests on normal (non-tumorous) and subcutaneous Sarcoma-180 tumor-bearing mice. […] The compounds were administered by intraperitoneal route and the values were calculated by standard methods (Goldin A., in Meth.Can.Res. 4, p. 193, 1968).
(§2) A thirty-day survival test was carried out with normal mice to determine any possible delayed toxicity.
(§3) The test solutions were prepared by dissolving either 38.72 mg of methylglyoxal maleimide ("A") or 5278 mg of methylglyoxal glutaconic imide ("B") in 100 ml of physiological saline. The pH of the solution was adjusted to 6.0, sterilized on Millipore filtration and stored in sterile vials at about 10° C. One […] of such solutions contained 0.387 mg of compound "A" or 52.78 mg of compound "B", respectively and when injected into mice of an average weight of 26 grams the dose was equivalent to 14.884 mg/kg of the compound "A" and 2030 mg/kg of the compound "B".
(§4) Normal, non-tumor-bearing mice of the same strain, sex and weight were also randomized and placed in separate test groups.
(§5) The compositions were injected at different dose levels, each dose being double the next-lower dose, with three test groups (30 mice) for each dose level. The injection was effected intraperitoneally into normal and tumor-bearing mice, starting on the fourth day after the inocculation with cancer, once daily for ten consecutive days. […] A proper number of normal and tumorous mice was treated with saline solution in the same manner, frequency and volume as a control experiment. The body weight change and mortality (acute toxicity) were recorded daily.
(§6) A number of normal animals treated with the drugs in the same manner as the tumorous ones were also sacrificed on the eleventh day, and their organs were collected for histological examination.

in vivo = settings: mouse, in vivo, ip
Description: as §1, §2, §3, §4, §5, §6

[2] = Acute toxicity (mortality) and body weight change in Sarcoma-180 tumor-bearing mice; settings: mouse, in vivo, ip
Description: as §1, §3
(§7) Random-bred Swiss albino mice (Charles River CD-1 strain, average weight 26±3 g, females) were inocculated with 25 million Sarcoma-180 cells (in about 0.25 ml of ascitic fluid, cell age 7 days) on the right scapular region. The animals were randomized on the 4th day after the inocculation with the cancer cells, placed in separate test groups of 10 mice per group (5 mice/cage) and weighed.
(§8) The compositions were injected at different dose levels, each dose being double the next-lower dose, with three test groups (30 mice) for each dose level. The injection was effected intraperitoneally into normal and tumor-bearing mice, starting on the fourth day after the inocculation with cancer, once daily for ten consecutive days. The volume of the injection at each dose level was brought up to 1.0 ml with saline. A proper number of normal and tumorous mice was treated with saline solution in the same manner, frequency and volume as a control experiment. The body weight change and mortality (acute toxicity) were recorded daily.

[3] = tested on: Sarcoma-180 tumor-bearing mice; experiment: as above
Description: as §1, §3, §7, §8

[4] = tumorous mice, 0.234 mg/kg i.p. daily for 10 days
[5] = tumorous mice, 0.468 mg/kg i.p. daily for 10 days
[6] = tumorous mice, 0.936 mg/kg i.p. daily for 10 days
[7] = tumorous mice, 1.872 mg/kg i.p. daily for 10 days
[8] = tumorous mice, 3.744 mg/kg i.p. daily for 10 days
[9] = tumorous mice, 7.488 mg/kg i.p. daily for 10 days
[10] = (ii) post graft treatment for 10 days
[11] = (iii) pretreatment for 10 days and post graft treatment for 25 days

SMILES: CC(=O)C(O)N1C(=O)CCC1=O (centres unmarked) [Methylglyoxal-succinimide, N-(2-keto-propane-1ol)-2,5diketo pyrrolidine]
- water solubility (Water solubility): high

SMILES: CC(=O)C(O)N1C(=O)C=CC1=O (centres unmarked) [Methylglyoxal-maleimide, N'-(2-keto-propane-1-ol)-2,5-dioxopyrroline-3-ene]
- ED99 (Sarcoma-180; Mus musculus, Sarcoma-180, ip, 240 h, tumorous mice, i.p. daily for 10 days): 1.15 mg/kg
- IT (therapeutic index LD10/ED90) (Sarcoma-180; i.p. daily for 10 days): 7.46
- ED% (Sarcoma-180; [4]): > 0.5%
- ED% (Sarcoma-180; [5]): ~ 1%
- ED% (Sarcoma-180; [6]): 60%
- ED% (Sarcoma-180; [7]): 100%
- ED% (Sarcoma-180; [8]): 100%
- ED% (Sarcoma-180; [9]): 100%
- rejection on 31-40 days (skin graft; (i) pretreatment for 10 days): 100%
- rejection on 26-30 days (skin graft; (i) pretreatment for 10 days): 30%
- rejection on 31-40 days (skin graft; [10]): 60%
- rejection on 26-30 days (skin graft; [10]): 10%
- rejection on 31-40 days (skin graft; [11]): 10%
- rejection on 26-30 days (skin graft; [11]): No rejection
- LD10 (maximum tolerated dose at 10% lethality) [1]: 8.59 mg/kg
- effect of reduction in the total volume of injection on mortality [1]: increase in mortality
- Δ body wt ([1]; normal mice, 0.234 mg/kg i.p. daily for 10 days): +1.0
- Δ body wt ([1]; normal mice, 0.468 mg/kg i.p. daily for 10 days): +0.7
- Δ body wt ([1]; normal mice, 0.936 mg/kg i.p. daily for 10 days): +0.46
- Δ body wt ([1]; normal mice, 1.872 mg/kg i.p. daily for 10 days): +0.39
- Δ body wt ([1]; normal mice, 3.744 mg/kg i.p. daily for 10 days): +0.1
- Δ body wt ([1]; normal mice, 7.488 mg/kg i.p. daily for 10 days): -0.2
- 30 day mortality rate of all treated nontumorous animals (compared with mortality in 10 days) ([1]; normal mice): identical
- mortality at 240 h (in vivo; 0.234 mg/kg): 0%
- mortality at 240 h (in vivo; 0.468 mg/kg): 0%
- mortality at 240 h (in vivo; 0.936 mg/kg): 0%
- mortality at 240 h (in vivo; 1.872 mg/kg): 0%
- mortality at 240 h (in vivo; 3.744 mg/kg): 0%
- mortality at 240 h (in vivo; 7.488 mg/kg): 0%
- mortality at 240 h (in vivo; 14.896 mg/kg): 100%
- mortality at 240 h ([2]; 0.234 mg/kg): 0%
- mortality at 240 h ([2]; 0.468 mg/kg): 0%
- mortality at 240 h ([2]; 0.936 mg/kg): 0%
- mortality at 240 h ([2]; 1.872 mg/kg): 0%
- mortality at 240 h ([2]; 3.744 mg/kg): 0%
- mortality at 240 h ([2]; 7.488 mg/kg): 0%
- mortality at 240 h ([2]; 14.896 mg/kg): 100%
- Δ body wt [3, 4]: +0.96
- Δ body wt [3, 5]: +0.65
- Δ body wt [3, 6]: +0.6
- Δ body wt [3, 7]: +0.4
- Δ body wt [3, 8]: +0.3
- Δ body wt [3, 9]: +0.1

SMILES: CC(=O)C(O)N1C(=O)C=CCC1=O (centres unmarked) [Methylglyoxal-glutaconic imide, N'-(2-keto-propane-1-ol)-2,6-dioxopyridine]
- ED90 (Sarcoma-180; Mus musculus, Sarcoma-180, ip, 240 h, read-out: ED90 (effective dose at 90% effectiveness)): 210 mg/kg
- IT (therapeutic index LD10/ED90) (Sarcoma-180; i.p. daily for 10 days): 6.23
- ED (Sarcoma-180; tumorous mice, 63.5 mg/kg i.p. daily for 10 days): > 5
- ED (Sarcoma-180; tumorous mice, 127 mg/kg i.p. daily for 10 days): 55
- ED (Sarcoma-180; tumorous mice, 254 mg/kg i.p. daily for 10 days): 100
- ED (Sarcoma-180; tumorous mice, 508 mg/kg i.p. daily for 10 days): 100
- ED (Sarcoma-180; tumorous mice, 1016 mg/kg i.p. daily for 10 days): 100
- LD10 (maximum tolerated dose at 10% lethality) [1]: 1310 mg;kg
- effect of reduction in the total volume of injection on mortality [1]: increase in mortality
- Δ body wt ([1]; mouse, in vivo, ip, 63.5 mg/kg): +0.55
- Δ body wt ([1]; mouse, in vivo, ip, 127 mg/kg): +0.3
- Δ body wt ([1]; mouse, in vivo, ip, 254 mg/kg): +0.15
- Δ body wt ([1]; mouse, in vivo, ip, 508 mg/kg): -0.1
- Δ body wt ([1]; mouse, in vivo, ip, 1016 mg/kg): -0.1
- Δ body wt ([1]; mouse, in vivo, ip, 1524 mg/kg): -0.4
- 30 day mortality rate of all treated nontumorous animals (compared with mortality in 10 days) ([1]; normal mice): identical
- mortality at 240 h (in vivo; 63.5 mg/kg): 0%
- mortality at 240 h (in vivo; 127 mg/kg): 0%
- mortality at 240 h (in vivo; 254 mg/kg): 0%
- mortality at 240 h (in vivo; 508 mg/kg): 0%
- mortality at 240 h (in vivo; 1016 mg/kg): 0%
- mortality at 240 h (in vivo; 2032 mg/kg): 100%
- mortality at 240 h ([2]; 63.5 mg/kg): 0%
- mortality at 240 h ([2]; 127 mg/kg): 0%
- mortality at 240 h ([2]; 254 mg/kg): 0%
- mortality at 240 h ([2]; 508 mg/kg): 0%
- mortality at 240 h ([2]; 1016 mg/kg): 0%
- mortality at 240 h ([2]; 2032 mg/kg): 100%
- Δ body wt ([3]; mouse, in vivo, ip, 63.5 mg/kg): +0.6
- Δ body wt ([3]; mouse, in vivo, ip, 127 mg/kg): +0.35
- Δ body wt ([3]; mouse, in vivo, ip, 254 mg/kg): +0.4
- Δ body wt ([3]; mouse, in vivo, ip, 508 mg/kg): +0.1
- Δ body wt ([3]; mouse, in vivo, ip, 1016 mg/kg): -0.3
